# According to US10316038B2, “Pyrrolopyrimidine ITK inhibitors for treating inflammation and cancer” (ACLARIS THERAPEUTICS, INC., priority 2017, dated 2019):
# Where two headings read alike, the source gives them in different places.
# Columns and labels:
# [1] = test system: ITK phosphorylation of its substrate, PLCγ1, at Y783; assay: ITK target modulation assay (phospho-Y783 PLCγ1 immunoblot in Jurkat T cells); type: cell-based; conditions: 2 hours compound, CD3/CD28 Dynabeads stimulation 100 sec, anti-phospho-Y783 PLCγ1 immunoblot, read-out: PLC-γ Inhibition IC50
# Procedure: Target modulation was based upon the ability of a compound to inhibit ITK phosphorylation of its substrate, PLCγ1, at […]. Human Jurkat T cells were placed in snap-cap polypropylene tubes at 4 million per tube in 800 μL medium (RPMI1640 with 10% heat inactivated serum and […] 2-mercaptoethanol and supplemented with glutamine/penicillin/streptomycin). Compounds were added as 100 μL of 10× working stock solutions in medium with 1% DMSO (or medium with 1% DMSO for controls) and placed in a 37° C. incubator for 2 hours. Stimulation was carried out using CD3/CD28 Dynabeads to activate the T cell receptor and mimic antigen presenting cells. Beads were added for 100 sec at a ratio of 1 bead per cell, in 100 μL medium (or medium alone for unstimulated control). Starting at 70 sec, cells and beads were pelleted in a microfuge for 15 sec, the supernatant aspirated, and 50 μL lysis buffer was added per tube and mixed with the pellet at the 100 sec time point. Tubes were placed on a rotator for 30 min at 4° C., and cell debris was pelleted in a microfuge. Supernatant was mixed 1:1 with 2× Sample Buffer and subjected to SDS-polyacrylamide gel electrophoresis. After transfer to nitrocellulose, immunoblotting was done with anti-phospho-[…] PLCγ1 antibody. Immunoblots were visualized with ECL using horseradish peroxidase conjugated secondary antibody.
# ITK = biological target: T1, ITK (Homo sapiens, UniProt Q08881); assay: ITK inhibitor binding potency (LanthaScreen competitive binding assay); conditions: TR-FRET competitive binding, 10 nM ITK, 50 nM kinase tracer-236; pre-incubation condition not given; read-out: ITK Inhibition IC50
# T1 sequence (Q08881 1-620): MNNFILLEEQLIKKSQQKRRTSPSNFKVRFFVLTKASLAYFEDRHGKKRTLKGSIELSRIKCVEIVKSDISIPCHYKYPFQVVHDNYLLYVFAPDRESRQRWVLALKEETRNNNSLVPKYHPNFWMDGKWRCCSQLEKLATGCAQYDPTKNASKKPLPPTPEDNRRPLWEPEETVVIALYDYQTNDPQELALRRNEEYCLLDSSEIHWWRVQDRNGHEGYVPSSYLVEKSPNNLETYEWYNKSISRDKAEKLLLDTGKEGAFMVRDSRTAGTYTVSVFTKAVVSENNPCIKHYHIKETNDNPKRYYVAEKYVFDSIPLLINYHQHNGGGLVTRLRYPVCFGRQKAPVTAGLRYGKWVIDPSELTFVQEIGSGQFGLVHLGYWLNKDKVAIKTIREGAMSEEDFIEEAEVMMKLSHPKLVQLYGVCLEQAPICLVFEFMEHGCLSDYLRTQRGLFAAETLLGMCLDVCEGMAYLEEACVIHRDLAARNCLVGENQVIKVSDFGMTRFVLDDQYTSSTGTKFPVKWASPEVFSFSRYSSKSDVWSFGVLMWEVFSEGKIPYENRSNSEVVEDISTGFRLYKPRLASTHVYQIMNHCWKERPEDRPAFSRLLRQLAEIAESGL
# Excerpt: The ability of candidate compounds to interact with ITK is quantitated by a competitive binding assay using the LanthaScreen technology developed by Life Technologies. This assay is based on the binding of a proprietary, Alexa Fluor™ 647-labeled, ATP-competitive kinase inhibitor (kinase tracer-236) to the ITK expression construct in the presence of a Europium-conjugated antibody, resulting in a FRET (fluorescence resonance energy transfer) signal. Displacement of the kinase tracer by compound results in a lower emission ratio upon excitation of the Europium chelate. Candidate compounds are designed as potential irreversible inhibitors of ITK, capable of ligating to an active site cysteine residue resulting in time dependent covalent binding. The time dependent nature of irreversible inhibition is investigated by performing the binding assay with and without a pre-incubation of compound and ITK. […] The inhibitory potency of candidate compounds is measured in 20 mM HEPES pH 7.5, 10 mM MgCl2, 0.01% BSA, 0.0005% Tween-20, and 2% DMSO in the presence of 10 nM ITK, 2 nM Eu-anti-GST antibody, and 50 nM kinase tracer-236 using a 384-well plate format. Background signal is defined in the absence of ITK and uninhibited signal is defined in the presence of vehicle (2% DMSO) alone. Compounds were evaluated in an 11 point dose-response ranging from 20 uM to 0.34 nM. The binding assays are performed under two preincubation conditions to evaluate time dependence of inhibition. For the pre-incubation assay, ITK and Eu-anti-GST antibody are pre-incubated with compound or vehicle for two hours prior to the addition of kinase tracer. The non-preincubated assay is run under conditions where ITK and Eu-anti-GST antibody are added to a mixture of compound and kinase tracer. IC50 values of compounds are determined using a 4 parameter logistical fit of emission ratio as a function of the concentration of compound.
"IC50 ([1]; Homo sapiens, Jurkat, 2 h) [µM]",IC50 (ITK) [µM],IC50 ([1]; Human Jurkat T cells) [µM],Compound
≤ 1,≤ 0.1,–,"Cc1cc(-c2c[nH]c3ncc(-c4cc(NC(=O)/C=C/CN(C)C)cc(C(F)(F)F)c4)cc23)ccn1 [Example 33, (E)-4-(dimethyl-amino)-N-(3-(3-(2-methylpyridin-4-yl)-1H-pyrrolo-[2,3-b]-pyridin-5-yl)-5-(trifluoro-methyl)phenyl)-but-2-enamide]"
≤ 1,≤ 0.1,–,COc1cc(-c2cnc3[nH]cc(-c4cccc(C#N)c4)c3c2)cc(N(C)C(=O)/C=C/CN(C)C)c1 [Example 64]
≤ 1,≤ 0.1,–,"C=CC(=O)N(C)c1cc(OC)cc(-c2cnc3[nH]cc(-c4cccc(C#N)c4)c3c2)c1 [Example 65, N-(3-(3-(3-cyano-phenyl)-1H-pyrrolo[2,3-b]-pyridin-5-yl)-5-methoxyphenyl)-N-methylacryl-amide]"
> 5,≤ 0.1,–,"C=CC(=O)Nc1cc(F)cc(-c2cnc3[nH]cc(-c4cccc(C#N)c4)c3c2)c1 [Example 69, N-(3-(3-(3-cyano-phenyl)-1H-pyrrolo[2,3-b]-pyridin-5-yl)-5-fluorophenyl)-acrylamide]"
> 5,≤ 0.1,–,"C=CC(=O)Nc1cc(OC)cc(-c2cnc3[nH]cc(-c4ccnc(C#N)c4)c3c2)c1 [Example 51, N-(3-(3-(2-cyano-pyridin-4-yl)-1H-pyrrolo[2,3-b]-pyridin-5-yl)-5-methoxyphenyl)-acrylamide]"
≤ 1,≤ 0.1,–,"C=CC(=O)Nc1cc(OC)cc(-c2cnc3[nH]cc(-c4ccnc(C)c4)c3c2)c1 [Example 28, N-(3-methoxy-5-(3-(2-methyl-pyridin-4-yl)-1H-pyrrolo[2,3-b]-pyridin-5-yl)-phenyl)acrylamide]"
≤ 1,≤ 0.1,–,"C=CC(=O)Nc1cc(-c2cnc3[nH]cc(-c4cccc(C#N)c4)c3c2)cc(-c2cnn(C)c2)c1 [Example 18, N-(3-(3-(3-cyano-phenyl)-1H-pyrrolo[2,3-b]-pyridin-5-yl)-5-(1-methyl-1H-pyrazol-4-yl)-phenyl)acrylamide]"
> 5,≤ 0.1,–,"CN(C)C/C=C/C(=O)Nc1cncc(-c2cnc3[nH]cc(-c4ccncn4)c3c2)c1 [Example 57, (E)-4-(dimethyl-amino)-N-(5-(3-(pyrimidin-4-yl)-1H-pyrrolo[2,3-b]pyridin-5-yl)-pyridin-3-yl)but-2-enamide]"
≤ 1,≤ 1,–,"C=CC(=O)Nc1cc(-c2cnc3[nH]cc(-c4ccnc5[nH]ccc45)c3c2)cc(C(F)(F)F)c1 [Example 25, N-(3-(1H,1′H-[3,4′-bipyrrolo-[2,3-b]pyridin]-5-yl)-5-(trifluoro-methyl)phenyl)-acrylamide]"
≤ 1,≤ 0.1,–,"Cc1cc(-c2c[nH]c3ncc(-c4cncc(NC(=O)/C=C/CN(C)C)c4)cc23)ccn1 [Example 42, (E)-4-(dimethyl-amino)-N-(5-(3-(2-methylpyridin-4-yl)-1H-pyrrolo-[2,3-b]pyridin-5-yl)pyridin-3-yl)-but-2-enamide]"
≤ 1,≤ 0.1,–,"C=CC(=O)Nc1cc(OC)cc(-c2cnc3[nH]cc(-c4ccnc(F)c4)c3c2)c1 [Example 29, N-(3-(3-(2-fluoro-pyridin-4-yl)-1H-pyrrolo[2,3-b]-pyridin-5-yl)-5-methoxyphenyl)-acrylamide]"
1 to 5,≤ 1,–,"C=CC(=O)Nc1cc(-c2cnc3[nH]cc(-c4cccc(F)c4)c3c2)cc(C(F)(F)F)c1 [Example 63, N-(3-(3-(3-fluoro-phenyl)-1H-pyrrolo[2,3-b]-pyridin-5-yl)-5-(trifluoro-methyl)phenyl)-acrylamide]"
≤ 1,≤ 0.1,–,"C=CC(=O)Nc1cccc(-c2cnc3[nH]cc(-c4cccc(C#N)c4)c3c2C)c1 [Example 43, N-(3-(3-(3-cyano-phenyl)-4-methyl-1H-pyrrolo[2,3-b]pyridin-5-yl)-phenyl)acrylamide]"
> 5,≤ 1,–,"C=CC(=O)Nc1cncc(-c2cnc3[nH]cc(-c4cccc(C(F)(F)F)c4)c3c2)c1 [Example 62, N-(5-(3-(3-(trifluoromethyl)-phenyl)-1H-pyrrolo[2,3-b]-pyridin-5-yl)-pyridin-3-yl)-acrylamide]"
≤ 1,≤ 0.1,–,"C=CC(=O)Nc1cc(-c2cnc3[nH]cc(-c4cncnc4)c3c2)cc(C(F)(F)F)c1 [Example 67, N-(3-(3-(pyrimidin-5-yl)-1H-pyrrolo-[2,3-b]pyridin-5-yl)-5-(trifluoro-methyl)phenyl)-acrylamide]"
1 to 5,≤ 0.1,–,"CNc1nccc(-c2c[nH]c3ncc(-c4cccc(NC(=O)/C=C/CN(C)C)c4)cc23)n1 [Example 27, (E)-4-(dimethyl-amino)-N-(3-(3-(2-(methylamino)-pyrimidin-4-yl)-1H-pyrrolo[2,3-b]pyridin-5-yl)phenyl)but-2-enamide]"
≤ 1,≤ 0.1,–,"C=CC(=O)Nc1cncc(-c2cnc3[nH]cc(-c4ccnc(OC)c4)c3c2)c1 [Example 17, N-(5-(3-(2-methoxypyridin-4-yl)-1H-pyrrolo-[2,3-b]pyridin-5-yl)pyridin-3-yl)-acrylamide]"
≤ 1,≤ 0.1,–,"C=CC(=O)N(C)c1cncc(-c2cnc3[nH]cc(-c4cccc(C#N)c4)c3c2)c1 [Example 66, N-(5-(3-(3-cyano-phenyl)-1H-pyrrolo[2,3-b]-pyridin-5-yl)-pyridin-3-yl)-N-methylacrylamide]"
–,≤ 0.1,1 to 5,"CN(C)C/C=C/C(=O)Nc1cncc(-c2cnc3[nH]cc(-c4ccnc(C#N)c4)c3c2)c1 [Example 61, (E)-N-(5-(3-(2-cyanopyridin-4-yl)-1H-pyrrolo-[2,3-b]pyridin-5-yl)pyridin-3-yl)-4-(dimethyl-amino)but-2-enamide]"
–,≤ 0.1,≤ 1,"CN(C)C/C=C/C(=O)Nc1cncc(-c2cnc3[nH]cc(-c4ccnc(C#N)c4)c3c2)c1 [Example 36, (E)-N-(5-(3-(2-cyanopyridin-4-yl)-1H-pyrrolo-[2,3-b]pyridin-5-yl)pyridin-3-yl)-4-(dimethyl-amino)but-2-enamide]"
1 to 5,≤ 0.1,–,"C=CC(=O)Nc1cc(OC(F)(F)F)cc(-c2cnc3[nH]cc(-c4cccc(C#N)c4)c3c2)c1 [Example 47, N-(3-(3-(3-cyano-phenyl)-1H-pyrrolo[2,3-b]-pyridin-5-yl)-5-(trifluoromethoxy)-phenyl)acrylamide]"
≤ 1,≤ 0.1,–,"C=CC(=O)Nc1cc(-c2cnc3[nH]cc(-c4ccncn4)c3c2)cc(C(F)(F)F)c1 [Example 22, N-(3-(3-(pyrimidin-4-yl)-1H-pyrrolo-[2,3-b]pyridin-5-yl)-5-(trifluoro-methyl)phenyl)-acrylamide]"
